The values that follow come from patent US6462017B1, “Method of reducing side effects of chemotherapy in cancer patients” (SciClone Pharmaceuticals, Inc., priority 2000, dated 2002).

The subject of series [1] is cancer patients (lung, gastric, breast cancer) receiving chemotherapy. The experiment in a line: Nausea and vomiting classified according to WHO criteria, same trial. The note with it: Cohort A with Tα1, n 54, P < 0.0005. The series is classed as in vivo, humans. As for the experimental part:
(§1) Method: A randomized crossover open label trial was performed. A total of sixty patients, twenty with lung cancer, twenty with gastric cancer and twenty with breast cancer were studied during two complete cycles of chemotherapy. All patients were randomized into two groups. In group 1, patients received chemotherapy with thymosin α1 in the first cycle, and without thymosin α1 in the second cycle. While patients in group 2 received chemotherapy without thymosin α1 in the first cycle, and with thymosin α1 in the second cycle. The patients were treated as follows:
(§2) Twenty lung cancer patients were treated with 100 mg of Etoposide IV on days 1-5 and 40 mg of Cisplatin I.V. on days 1-3 in a 21 day cycle.
(§3) Twenty gastric cancer patients were treated with 100 mg of Etoposide IV on days 1-5, 30 mg/m^2 Calcium Leucovorin I.V. on days 1-5 and 500 mg/m^2 5-Fluorouricil (5-FU) I.V. on days 1-5.
(§4) Twenty breast cancer patients were treated with 5-Fluorouricil 500 mg/m^2, Adriamycin I.V. 30 mg/m^2 I.V. on day 1 and cyclophosphamide 500 mg/m^2 I.V. on day 1.
(§5) A mild anti-emetic consisting of 20 mg metoclopamide, I.M. and 5 mg Dexamethasone I.V. were given to all patients on days 1-5. All subjects on thymosin received six injections of 1.6 mg s.c. Tα1 on each of the four days immediately preceding the chemotherapy and on days two and four following chemotherapy. All patients who have completed the two cycles of chemotherapy, then were reallocated into two cohorts, A and B. Cohort A are patients with Tα1, and Cohort B are patients without Tα1.

Series [2] concerns cancer patients. The experiment in a line: Side effects of thymosin α1 administration. The series is classed as in vivo, humans. The note with it: administration in conjunction with antineoplastics.
Series [3] concerns cancer patients (lung, gastric, breast cancer) receiving chemotherapy. The experiment in a line: Quality of life scored scale, randomized crossover open label trial of chemotherapy cycles with and without Tα1. The format is in vivo, humans. As for the experimental part: as §1, §2, §3, §4, §5
Analysis: Quality of life was analyzed using a scored scale for (1) loss of appetite, (2) loss of sleep, (3) fatigue, (4) reduction in daily activity, (5) decline in overall feeling, (6) depression and (7) nausea and vomiting. Maximum total score was 35 points.

In series [4] the test system is VIP receptor. Conditions: in vitro; cited from earlier work.

Where no end group is shown, it is not given here.

Take “thymosin α1 (SDAAVDTSSEITTKDLKEKKEVVEEAEN; not fully specified; ends and bridges not checked; UniProt P06454 2-29, looked up) [Tα1, acidic polypeptide isolated from thymosin fraction 5, an immunomodulator that acts primarily by enhancing T-cell function]”: the “Nausea and vomiting WHO Gr. 4, number of patients” value in series [1] (without Tα1 0) was 0. Moreover, in series [1] (without Tα1 4/53), the “Nausea and vomiting WHO Grade 0, number of patients” value is given as 7/55. Besides, the “Nausea and vomiting WHO Gr. 3, number of patients” value in series [1] (without Tα1 11) was determined as 1. Besides, in series [1] (without Tα1 19), the “Nausea and vomiting WHO Gr. 1, number of patients” value stood at 33; the “Nausea and vomiting WHO Gr. 2, number of patients” value is 13. In series [2], the “Side effects of thymosin α1” value is “does not appear to result in any side effects”. The “Effect on quality of life scores” value in series [3] (addition of Tα1 to chemotherapy cycles compared with cycles without Tα1) is given as “significantly increases the quality of life scores”. Moreover, in series [3] (cycles with Tα1 (1.6 mg s.c., six injections) vs. cycles without Tα1 3.70, p = 0.0001), the “Fatigue, quality of life score” value was 4.05 vs. 3.70 p = 0.0001. The “Depression, quality of life score” value in series [3] (cycles with Tα1 (1.6 mg s.c., six injections) vs. cycles without Tα1 3.72, p = 0.003) was 4.01 vs. 3.72 p = 0.003. In addition, in series [3] (cycles with Tα1 (1.6 mg s.c., six injections) vs. cycles without Tα1 3.84, p = 0.0001), the “Reduction in Daily Activity, quality of life score” value stood at 4.12 vs. 3.84 p = 0.0001. For the same substance, the “Nausea and Vomiting, quality of life score” value in series [3] (cycles with Tα1 (1.6 mg s.c., six injections) vs. cycles without Tα1 3.93, p = 0.001) was found to be 4.29 vs. 3.93 p = 0.001. The “Decline in Overall Feeling, quality of life score” value in series [3] (cycles with Tα1 (1.6 mg s.c., six injections) vs. cycles without Tα1 3.94, p = 0.0001) turned out to be 4.32 vs. 3.94 p = 0.0001. For the same substance, the “Loss of Appetite, quality of life score” value in series [3] (cycles with Tα1 (1.6 mg s.c., six injections) vs. cycles without Tα1 3.99, p = 0.0001) came out at 4.33 vs. 3.99 p = 0.0001. Besides, the “Loss of Sleep, quality of life score” value in series [3] (cycles with Tα1 (1.6 mg s.c., six injections) vs. cycles without Tα1 4.10, p = 0.002) was 4.41 vs. 4.10 p = 0.002. For the same substance, in series [4], the VIP receptor binding entry is listed as “has a VIP receptor binding effect”.
